Assay results: patent US10220069B2, “Compositions and methods for treating diabetes” (THE JOHNS HOPKINS UNIVERSITY, priority 2014, dated 2019)

Tests used:
Gcgr = target: T1, Gcgr (Mus musculus, UniProt Q61606); assay: Gcgr antagonist GAI or inactive analog GAC 60 min before ipGTT in HFD and Lepr db/db mice; format: in vivo
T1 construct: endogenous in cells; host or cells: live mice (WT, Gcgrfl/fl, HFD-fed C57Bl/6, Lepr db/db); hepatic receptor
Method: Intraperitoneal glucose tolerance (ipGTT) and insulin tolerance (ipITT) tests were performed according to standard protocols (Song et al., 2013; Song et al., 2011). After 9 am-3 pm fasting, animals were administered 20% D-glucose (via ip injection), insulin 0.5 U/kg i.p. (Novolin), glucagon (100 μg/kg i.p. (Sigma)). […] The glucagon receptor antagonist GAI (N-(3-Cyano-6-(1,1-dimethylpropyl)-4,5,6,7-tetrahydro-1-benzothien-2-yl)-2-ethylbutanamide (Qureshi et al., 2004) and its non-active analogue were administered (50 mg/kg i.p. in DMSO) in HFD fed and Lepr^db/db mice 60 min before i. GTT. Intraperitoneal pyruvate converstion (1 g/kg i.p.) test (ipPCT) in ΔL-Prkar1a mice was performed in the fed state (9 am) to avoid any confounding effects of fasting-induced elevated endogenous glucagon levels. Tail-vein blood was collected at the indicated times in figures for glucose and insulin measurements. Serum insulin was measured using mouse magnetic bead panel (Millipore, Luminex). Plasma for glucagon measurements was drawn from mice in the fed state at 9 am, unless otherwise noted for fasting studies. Plasma glucagon (Alpco) and kisspeptin1 (USCN Life Sciences Inc. E92559Ra) were measured by ELISA according to manufacturer's instructions including dilution of samples.
Liver Kiss1 Upregulation is Linked to Hyperglucagonemia in DM.

Kiss1R [1] = target: T2, Kiss1R (Mus musculus, UniProt Q91V45); assay: Islet perifusion assay, first and second phase GSIS; format: cell-based; settings: isolated mouse islets
T2 construct: Mouse brain, mouse islets, insulinoma cells, and human islets express Kiss1R; from tissue; host or cells: isolated mouse pancreatic islets (WT / Kiss1Rfl/fl, C57Bl/6 background)
Method: Perifusion studies were performed as previously published (Song et al., 2013; Song et al., 2011) with slight modifications. The perifusate was Krebs ringer buffer (KRB) (37 C, pH 7.4) containing 0.2% BSA fraction V, 24 mM sodium bicarbonate and was gassed with 95% air and 5% CO2. Perifusion (1 ml/min) occurred for the first 30 minutes with a KRB containing 3 mM glucose for equilibration, after which time the perifusate was collected in 1 ml fractions. After additional 10 minutes, glucose in the perifusate was increased to 10 mM. […] Insulin was measured in selected individual eluent fractions at 30, 35, 40, 42, 45, 50, 55, 60 min (Alpco ELISA). The first 10 minutes after increasing glucose was defined as first phase, the period thereafter was defined as second phase of insulin secretion. At the end of the perifusion protocol, 30 mM KCL was administered into the perifusate to depolarize β-cells. Insulin levels were normalized to total islet protein, which was spectrophotometrically determined (Eppendorf) after completion of the perifusion protocol.

Kiss1R [2] = target: T2, Kiss1R; assay: Islet cAMP concentrations (ELISA) in response to kisspeptin; format: cell-based
Method: (§1) For studies with plasma incubation, a final concentration of plasma was 1% or 10% (vol/vol). […] Islets were taken in 0.18M HCL/70% ethanol to extract and measure total islet insulin content. cAMP concentrations were measured in islet extracts using ELISA (Enzo Life Sciences).

Kiss1R [3] = target: T2, Kiss1R; assay: Glucose stimulated insulin secretion (GSIS) from cultured mouse islets, static incubation; format: cell-based; design: GSIS at very high kisspeptin concentration: dose or concentration left out as unconfirmed
Method: Isolated Islet Studies. Islet isolation was performed by collagenase digestion, gradient centrifugation, and three rounds of microscope-assisted manual picking of islets. Static incubation studies were conducted as previously described with 20 handpicked, equal-sized islets were studied in each group (Song et al., 2011). After overnight culture (37_C, 5% CO2, and 95% O2 in humid chamber) of isolated islets in RPMI 1640 (Mediatech) containing 5 mM glucose, 1% each Na-Pyruvate, HEPES, Penicillin/Streptomycin, and 0.2% BSA, islets were switched to either 10 or 20 mM glucose containing RPMI 1640. Where indicated, Kisspeptin-10 (0-100 nM, and […]), E4 (10 nM), or vehicle (PBS) was added. After 30 min incubation glucose concentrations, supernatant was taken for insulin measurements and pelleted islets were taken in acid ethanol (0.18M HCl in 70% ethanol) for insulin measurements in islets (ELISA, Alpco). Islet protein concentration was measured using the BCA method (Thermo Fisher).
Islet studies. Islet isolation was performed by collagenase digestion, gradient centrifugation and three rounds of microscope-assisted manual picking of islets (Song et al., 2011). Static incubation studies were conducted as previously described with 20 hand-picked equalized islets were studied in each group. Islets were cultured in RPMI 1640 medium (Invitrogen) containing 10 or 20 mM D-glucose (as indicated) and supplemented with 0.2% bovine serum albumin, 1% each Na-Pyruvate, HEPES, Penicillin/Streptomycin. After 30 min incubation glucose concentrations, supernatant was taken for insulin measurements and pelleted islets were taken in acid ethanol (0.18M HCl in 70% ethanol) for insulin measurements in islets (Alpco). Islet protein concentration was measured using the BCA method (Thermo Fisher).
Insulin secretion during static incubation. After overnight culture (37 C, 5% CO2, 95% O2 in humid chamber) of isolated islets in RPMI 1640 (Mediatech) containing 5 mM glucose, 1% each Na-Pyruvate, HEPES, Penicillin/Streptomycin and 0.2% bovine serum albumin (BSA), islets were switched to either 10 or 20 mM glucose containing RPMI 1640. […] After 30 min incubation glucose concentrations, supernatant was taken for insulin measurements and pelleted islets were taken in acid ethanol (0.18M HCl in 70% ethanol) for insulin measurements in islets (ELISA, Alpco). Islet protein concentration was measured using the BCA method (Thermo Fisher).

Kiss1R [4] = target: T2, Kiss1R; assay: ipGTT with ip coinjection of kisspeptin and glucose; format: in vivo
Method: Intraperitoneal glucose tolerance (ipGTT) and insulin tolerance (ipITT) tests were performed according to standard protocols (Song et al., 2013; Song et al., 2011). After 9 am-3 pm fasting, animals were administered 20% D-glucose (via ip injection), insulin 0.5 U/kg i.p. (Novolin), glucagon (100 μg/kg i.p. (Sigma)). […] Plasma for glucagon measurements was drawn from mice in the fed state at 9 am, unless otherwise noted for fasting studies. Plasma glucagon (Alpco) and kisspeptin1 (USCN Life Sciences Inc. E92559Ra) were measured by ELISA according to manufacturer's instructions including dilution of samples.

islets = assay: Islets incubated 48 hours with K54: cAMP dependent, ER stress, oxidative stress and NLRP3 inflammasome markers (Table 5); format: cell-based, mouse; settings: K54 10 nM
Method: Kisspeptin1 Causes ERS and UPR in Islets Independently of Hyperglycemia. […] Because reduction in cAMP signaling in β-cells reduces IRS2 and PDX1 and provokes ERS/UPR and apoptosis 11,12, we examined whether kisspeptin action on β-cells may provoke ERS/UPR. Islets were incubated in 10 nM […]. To control for stimulus for increased insulin biosynthesis and potential UPR response, we incubated islets at 5 and 10 mM glucose. […] Incubation at 10 mM glucose stimulated oxidative stress ERS and NLRP-I markers, but less pronounced than […] at 5 mM glucose. Treatment with […] at high (10 mM) glucose further augmented ERS/UPR, oxidative stress and NLRP3-I markers. Thus, kisspeptin treatment even at normoglycemia stimulates in islets the ERS/UPR response more potently than hyperglycemia (glucose 10 mM) and […] aggravates ERS/UPR induced by hyperglycemia only (Table 5).

[5] = target: T3, receptor for the incretin hormone glucagon-like peptide-1 (GLP-1) (Mus musculus, UniProt O35659); assay: Islet cAMP synthesis in response to exendin-4; format: cell-based
T3 construct: from tissue; host or cells: isolated mouse pancreatic islets (Kiss1Rfl/fl and Panc-ΔKiss1R)
T3 sequence (O35659 22-463): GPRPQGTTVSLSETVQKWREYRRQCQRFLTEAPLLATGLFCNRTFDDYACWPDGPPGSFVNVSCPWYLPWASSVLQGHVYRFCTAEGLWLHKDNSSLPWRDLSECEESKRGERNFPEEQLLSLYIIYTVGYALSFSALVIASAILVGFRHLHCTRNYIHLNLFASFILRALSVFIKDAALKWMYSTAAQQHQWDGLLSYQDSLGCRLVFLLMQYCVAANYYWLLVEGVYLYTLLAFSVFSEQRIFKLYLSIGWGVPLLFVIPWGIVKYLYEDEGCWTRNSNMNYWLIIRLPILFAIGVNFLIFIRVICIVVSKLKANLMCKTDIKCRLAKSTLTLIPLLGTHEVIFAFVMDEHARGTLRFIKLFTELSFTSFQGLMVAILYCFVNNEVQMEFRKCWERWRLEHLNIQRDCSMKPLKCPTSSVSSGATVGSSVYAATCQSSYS
Method: as §1

[6] = Kiss1Rfl/fl and Panc-DKiss1R islets

T2 sequence (Q91V45 whole entry, the tested form may be a part): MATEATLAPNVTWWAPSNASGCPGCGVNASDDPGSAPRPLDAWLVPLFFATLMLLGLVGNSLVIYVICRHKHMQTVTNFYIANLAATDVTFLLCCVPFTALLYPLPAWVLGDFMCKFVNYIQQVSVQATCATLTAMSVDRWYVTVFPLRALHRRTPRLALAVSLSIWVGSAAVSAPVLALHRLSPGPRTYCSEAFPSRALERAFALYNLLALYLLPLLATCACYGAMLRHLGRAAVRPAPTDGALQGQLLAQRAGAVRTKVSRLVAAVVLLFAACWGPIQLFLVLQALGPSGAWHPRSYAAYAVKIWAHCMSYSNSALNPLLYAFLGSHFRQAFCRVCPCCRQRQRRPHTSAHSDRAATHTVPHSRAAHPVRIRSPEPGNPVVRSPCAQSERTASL
T1 sequence (Q61606 27-485): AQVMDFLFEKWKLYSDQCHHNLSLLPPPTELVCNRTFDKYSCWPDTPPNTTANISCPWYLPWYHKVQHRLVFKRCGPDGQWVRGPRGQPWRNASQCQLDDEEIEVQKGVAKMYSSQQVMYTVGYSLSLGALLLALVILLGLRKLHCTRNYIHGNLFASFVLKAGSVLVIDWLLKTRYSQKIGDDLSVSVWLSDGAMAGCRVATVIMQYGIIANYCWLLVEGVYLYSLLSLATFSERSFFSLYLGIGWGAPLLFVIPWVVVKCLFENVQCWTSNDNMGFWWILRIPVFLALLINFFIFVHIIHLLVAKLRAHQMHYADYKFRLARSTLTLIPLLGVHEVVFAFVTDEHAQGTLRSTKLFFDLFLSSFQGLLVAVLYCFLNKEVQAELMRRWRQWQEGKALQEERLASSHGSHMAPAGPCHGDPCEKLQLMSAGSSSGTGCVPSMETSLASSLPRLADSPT

CCC(CC)C(=O)Nc1sc2c(c1C#N)CCC(C(C)(C)CC)C2 (stereo not drawn) [GAI, N-(3-Cyano-6-(1,1-dimethylpropyl)-4,5,6,7-tetrahydro-1-benzothien-2-yl)-2-ethylbutanamide]
liver Kiss1 expression (Gcgr; HFD and Lepr db/db mice): reduction | liver gluconeogenic gene expression (Pparg1a, Src1, G6P, Pck1 mRNA) (Gcgr; HFD and Lepr db/db mice): reduction | liver pCREB (Gcgr; HFD and Lepr db/db mice): corresponding reductions | CREB occupancy of CRE 1 and 2 in the Kiss1 promoter (Gcgr; HFD and Lepr db/db mice, in vivo ChIP): reduces CREB occupancy | basal glycemia and GT (Gcgr; HFD and Lepr db/db mice, single dose 50 mg/kg i.p. 60 min before ipGTT, versus GAC): improved basal glycemia as well as GT | circulating plasma glucagon levels (Gcgr; HFD fed and Lepr db/db mice, fed state, 60 min after treatment): remained unchanged

Gly-Thr-Ser-Leu-Ser-Pro-Pro-Pro-Glu-Ser-Ser-Gly-Ser-Arg-Gln-Gln-Pro-Gly-Leu-Ser-Ala-Pro-His-Ser-Arg-Gln-Ile-Pro-Ala-Pro-Gln- Gly-Ala-Val-Leu-Val-Gln-Arg-Glu- Lys-Asp-Leu-Pro-Asn-Tyr-Asn-Trp-Asn-Ser-Phe-Gly-Leu-Arg-Phe-NH2 [K54]
E4-potentiated GSIS, first and second phase (Kiss1R [1]): suppressed | first (0-10 min after glucose stimulation) and second phases of GSIS (Kiss1R [1]; 10 mM glucose): suppressed | islet cAMP production in response to exendin-4 (E4) (Kiss1R [2]; Kiss1Rfl/fl (WT) islets): impaired islet cAMP production | islet cAMP concentrations (Kiss1R [2]; WT mouse islets, 10 mM glucose, 10 nM): lower cAMP concentrations | baseline and E4-induced cAMP concentrations in Panc-DKiss1R islets (Kiss1R [2]; islets lacking Kiss1R): not affected | GSIS at very high kisspeptin concentration (Kiss1R [3]; [6]): GSIS stimulation from both Kiss1Rfl/fl and Panc-DKiss1R islets | lowest concentration suppressing GSIS (Kiss1R [3]; Kiss1Rfl/fl mouse islets, serum-free media, 10 or 20 mM glucose): 0.1 nM | GSIS from Panc-DKiss1R islets (Kiss1R [3]; islets lacking Kiss1R, nanomolar concentrations): impervious to K54-mediated GSIS suppression | E4-potentiated GSIS (Kiss1R [3]; mouse islets cultured at 10 mM glucose, static incubation): dose-dependently suppressed | GSIS from Kiss1Rfl/fl (WT) mouse islets (Kiss1R [3]; static incubation, nanomolar concentrations (0-100 nM), 10 or 20 mM glucose): suppressed GSIS in a dose-dependent manner | in vivo GSIS in control (Kiss1rfl/fl, WT) mice (Kiss1R [4]; 10 nmol ip with glucose during ipGTT): suppressed GSIS | in vivo GSIS in Panc-DKiss1R mice (Kiss1R [4]; 10 nmol ip, mice lacking pancreas Kiss1R): did not affect GSIS | glucose tolerance in WT mice (Kiss1R [4]; acute administration, 10 nmol ip): impaired glucose tolerance | ATF5 (NLRP3 Inflammasome) (islets; Hyperglycemia Glucose 10 mM): 1.9 ± 0.4 | CHOP (ER stress) (islets; Hyperglycemia Glucose 10 mM): 2.2 ± 0.5 | Catalase (Oxidative stress) (islets; Hyperglycemia Glucose 10 mM): 8.8 ± 0.5 | IL-1β (NLRP3 Inflammasome) (islets; Hyperglycemia Glucose 10 mM): 1.9 ± 0.2 | IRS2 (cAMP dependent) (islets; Hyperglycemia Glucose 10 mM): 0.6 ± 0.2 | PDI (ER stress) (islets; Hyperglycemia Glucose 10 mM): 1.8 ± 0.3 | PDX1 (cAMP dependent) (islets; Hyperglycemia Glucose 10 mM): 0.5 ± 0.3 | SOD1 (Oxidative stress) (islets; Hyperglycemia Glucose 10 mM): 3.2 ± 0.3 | SOD2 (Oxidative stress) (islets; Hyperglycemia Glucose 10 mM): 2.4 ± 0.4 | Spliced XBP-1 (ER stress) (islets; Hyperglycemia Glucose 10 mM): 2.1 ± 0.4 | TXNIP (NLRP3 Inflammasome) (islets; Hyperglycemia Glucose 10 mM): 5.5 ± 0.3 | Total XBP-1 (ER stress) (islets; Hyperglycemia Glucose 10 mM): 1.5 ± 0.3 | ATF5 (NLRP3 Inflammasome) (islets; Normoglycemia Glucose 5 mM): 1.4 ± 0.4 | CHOP (ER stress) (islets; Normoglycemia Glucose 5 mM): 1.9 ± 0.4 | Catalase (Oxidative stress) (islets; Normoglycemia Glucose 5 mM): 6.2 ± 0.6 | IL-1β (NLRP3 Inflammasome) (islets; Normoglycemia Glucose 5 mM): 1.7 ± 0.3 | IRS2 (cAMP dependent) (islets; Normoglycemia Glucose 5 mM): 0.5 ± 0.3 | PDI (ER stress) (islets; Normoglycemia Glucose 5 mM): 1.4 ± 0.4 | PDX1 (cAMP dependent) (islets; Normoglycemia Glucose 5 mM): 0.6 ± 0.2 | SOD1 (Oxidative stress) (islets; Normoglycemia Glucose 5 mM): 2.1 ± 0.4 | SOD2 (Oxidative stress) (islets; Normoglycemia Glucose 5 mM): 1.9 ± 0.3 | Spliced XBP-1 (ER stress) (islets; Normoglycemia Glucose 5 mM): 1.8 ± 0.5 | TXNIP (NLRP3 Inflammasome) (islets; Normoglycemia Glucose 5 mM): 4.8 ± 1.1 | Total XBP-1 (ER stress) (islets; Normoglycemia Glucose 5 mM): 1.4 ± 0.3

exendin-4 [E4]
islet cAMP synthesis [5, 6]: stimulates cAMP synthesis | reversal of K10-reduced cAMP production ([5]; isolated WT mouse islets treated with K10): partially reversed
